Patent publication US8153649B2, “3-aminoimidazo 1,2-A pyridine derivatives having an SGLT1- and SGLT2-inhibiting action for the treatment of type 1 and type 2 diabetes” (Merck Patent Gesellschaft mit beschrankter Haftung, priority 2006, dated 2012)

What was measured:
SGLT2 = target: T1, SGLT2 (Homo sapiens, UniProt P31639); assay: 14C-AMG uptake in BHK cells transfected with SGLT2; format: cell-based; conditions: 37° C., 90 min
T1 construct: expressed in transfected cells
T1 sequence (P31639 1-672): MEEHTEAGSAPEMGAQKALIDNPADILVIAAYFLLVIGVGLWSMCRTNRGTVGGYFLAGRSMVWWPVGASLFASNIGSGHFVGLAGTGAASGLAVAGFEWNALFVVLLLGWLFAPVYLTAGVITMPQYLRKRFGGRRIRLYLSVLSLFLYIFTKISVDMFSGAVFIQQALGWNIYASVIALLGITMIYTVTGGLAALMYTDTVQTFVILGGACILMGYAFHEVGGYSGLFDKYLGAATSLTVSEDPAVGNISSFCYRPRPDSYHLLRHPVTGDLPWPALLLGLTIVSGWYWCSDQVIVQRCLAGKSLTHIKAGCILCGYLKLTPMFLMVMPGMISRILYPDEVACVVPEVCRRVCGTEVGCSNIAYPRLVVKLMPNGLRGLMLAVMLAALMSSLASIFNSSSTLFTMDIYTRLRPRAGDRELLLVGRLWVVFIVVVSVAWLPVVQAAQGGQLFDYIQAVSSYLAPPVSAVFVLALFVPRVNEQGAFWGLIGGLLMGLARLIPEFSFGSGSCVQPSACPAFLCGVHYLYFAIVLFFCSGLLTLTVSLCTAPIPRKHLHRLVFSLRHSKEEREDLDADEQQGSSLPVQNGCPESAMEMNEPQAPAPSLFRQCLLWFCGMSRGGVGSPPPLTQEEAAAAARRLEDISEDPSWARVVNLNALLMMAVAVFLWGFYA
From the text: (§1) The compounds can be tested on their SGLT inhibition properties by means of BHK cells expressing SGLT1 and SGLT2. The production of the cells and the testing can be carried out as described below.
To construct the SGLT2 expression vector (KL224), the SLC5A2 gene (homologous to NM_003041) was amplified from a cDNA library using standard PCR technology and cloned over NheI/XhoI sites into PCI-neo expression vector (Promega) containing neomycin as a selection marker. In this vector, transcription uses the enhancer/promoter of human cytomegalovirus and the SV40 polyadenylation signal.
(§2) The final vector KL224 together with an additional vector containing a dihydrofolate reductase gene as a selection marker was introduced into cells. Transfection into BHK21 cells (ATCC CCL-10), cultivated in DMEM medium (GIBCO/BRL), supplemented with 10% foetal calf serum (FCS) and 20 mM glutamine, was carried out using calcium phosphate transfections according to Graham, F. L. and van der Ebb, A. J. (1973), Virology 52: 456 with 5-20 μg of uncut plasmids for 10^7 cells. Stable transfectants were selected in medium containing 1 mg/ml of G418 (GIBCO/BRL) and 20-5000 nM methotrexate as final concentration, where only cells which expressed the neomycin gene and overexpressed the dhfr gene were able to grow. After growth for 2-3 weeks, the cells were cloned (0.5 cells/well) and the clones were investigated for SGLT expression in the radioactive uptake test,
The uptake of ^14C-α-methyl-D-glucopyranoside (AMG) in, for example, Xenopus oocytes injected with the corresponding cRNA has been described in principle (for example Wen-Sen Lee et al. (1994), J. Biol. Chem. 269, 12032-12039; Guofeng You et al. (1995), J. Biol. Chem. 270, 29365-29371).
(§3) A 96-well cell-based assay was developed and adapted to HIS requirements:
(§4) BHK cells (transfected with SGLT1 or SGLT2) were seeded into 96-well microtitre plates (Cultureplates, Perkin Elmer). After at least 24 h, medium was removed and the cell layer was washed with assay buffer (140 mM NaCl, 2 mM KCl, 1 mM CaCl2, 1 mM MgCl2, 10 mM HEPES, 5 mM Tris, adjusted with 1 M KOH to pH 7.4), After addition of 40 μl of assay buffer, 50 μl of AMG ([…] for SGLT1 and 2 mM for SGLT2) in the presence or absence of compounds, the cells were incubated in a total volume of 100 μl at 37° C. for 90 min. Supernatant was removed by suction and discarded. The cells were washed and lysed by addition of 50 μl of water. After 10 min at room temperature, 200 μl of Microscint 40 (Perkin Elmer) were added. The radioactivity was counted in a Topcount microplate scintillation counter (Perkin Elmer). The non-specific uptake was determined in sodium-free assay buffer (266 mM sucrose, 2 mM KCl, 1 mM CaCl2, 1 mM MgCl2, 10 mM HEPES, 5 mM Tris, adjusted to pH 7.4 using 1 M KOH).

SGLT1 = target: T2, SGLT1 (Homo sapiens, UniProt P13866); assay: 14C-AMG uptake in BHK cells transfected with SGLT1; format: cell-based; conditions: 37° C., 90 min
T2 construct: expressed in transfected cells
T2 sequence (P13866 1-664): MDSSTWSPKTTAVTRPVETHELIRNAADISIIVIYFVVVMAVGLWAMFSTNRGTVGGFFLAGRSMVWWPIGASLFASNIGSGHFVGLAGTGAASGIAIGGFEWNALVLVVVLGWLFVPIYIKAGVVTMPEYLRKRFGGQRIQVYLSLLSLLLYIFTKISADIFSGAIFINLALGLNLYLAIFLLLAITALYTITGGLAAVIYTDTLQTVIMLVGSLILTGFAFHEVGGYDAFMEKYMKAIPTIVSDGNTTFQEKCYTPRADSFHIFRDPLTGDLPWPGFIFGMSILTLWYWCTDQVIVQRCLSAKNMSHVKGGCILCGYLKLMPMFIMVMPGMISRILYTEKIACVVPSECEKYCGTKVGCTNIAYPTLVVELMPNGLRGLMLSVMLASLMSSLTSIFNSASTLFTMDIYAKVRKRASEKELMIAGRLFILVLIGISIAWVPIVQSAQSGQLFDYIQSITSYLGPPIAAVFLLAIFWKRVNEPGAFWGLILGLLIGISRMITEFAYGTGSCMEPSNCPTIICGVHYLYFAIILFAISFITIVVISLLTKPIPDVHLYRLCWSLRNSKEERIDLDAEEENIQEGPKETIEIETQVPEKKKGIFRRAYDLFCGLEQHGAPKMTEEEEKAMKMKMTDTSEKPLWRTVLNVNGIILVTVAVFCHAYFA
From the text: as §1
To construct the SGLT1 expression vector (KL225), the SLC5A1 gene (homologous to NM_000343) was amplified from a cDNA library using standard PCR technology and cloned over NheI/XhoI sites into the cDNA3.1 expression vector (Invitrogen) containing neomycin as a selection marker. In this vector, transcription uses the enhancer/promoter of human cytomegalovirus.
as §2, with “KL225” for “KL224”, “radioactivity” for “radioactive”, “test. […]” for “test,”
as §3, §4

IC50 (SGLT2) | IC50 (SGLT1) | SMILES
10 to 1000 nM | 10 to 1000 nM | CNc1nnc(-c2sc3ccccc3c2-c2nc3ccc(F)cn3c2Nc2c(C)cccc2C)o1 [Compound C13, (2,6-Dimethylpheny1)-{6-fluoro-2-[2-(5-methylamino-1,3,4-oxadiazol-2-y1)-benzo[b]thiophen-3-yl]imidazo[1,2-a]pyridin-3-yl}amine]
1000 to 10000 nM | > 10000 nM | Cc1cccc(C)c1Nc1c(-c2ccccc2-n2cccn2)nc2ccc(F)cn12 [Compound A6]
1000 to 10000 nM | 1000 to 10000 nM | Cc1cccc(C)c1Nc1c(-c2c(-n3cccn3)cccc2-n2cccn2)nc2ccc(F)cn12 [Compound A5, (2,6-Dimethylphenyl)-[2-(2,6-dipyrazol-1-yl-phenyl)-6-fluoroimidazo[1,2-a]pyridin-3-yl]-amine]
10 to 1000 nM | > 10000 nM | Cc1cccc(C)c1Nc1c(-c2ccccc2-c2nnc(N)o2)nc2ccc(F)cn12 [Compound B1, {2-[2-(5-amino-1,3,4-oxadiazol-2-yl)phenyl]-6-fluoroimidazo[1,2-a]pyridin-3-yl}-(2,6-dimethylphenyl)amine]
1000 to 10000 nM | > 10000 nM | CNc1nnc(-c2cc(O)c(O)cc2-c2nc3ccc(F)cn3c2Nc2c(C)cc(F)cc2C)o1 [Compound C2]
1000 to 10000 nM | > 10000 nM | CNc1nnc(-c2cc(OC)c(OC)cc2-c2nc3ccc(F)cn3c2Nc2c(C)cc(F)cc2C)o1 [Compound C3]
10 to 1000 nM | 1000 to 10000 nM | CCNc1nnc(-c2ccccc2-c2nc3ccc(F)cn3c2Nc2c(C)cccc2C)o1 [Compound C5]
10 to 1000 nM | 1000 to 10000 nM | Cc1cccc(C)c1Nc1c(-c2ccccc2-c2cncnc2)nc2ccccn12 [Compound A9]
10 to 1000 nM | > 10000 nM | Cc1cccc(C)c1Nc1c(-c2c(Cl)cccc2-c2nnc(N)o2)nc2ccc(F)cn12 [Compound B2]
1000 to 10000 nM | 1000 to 10000 nM | Cc1cccc(C)c1Nc1c(-c2ccccc2-c2ccc(C(N)=O)o2)nc2ccc(F)cn12 [Compound A7]
1000 to 10000 nM | 1000 to 10000 nM | Cc1cccc(C)c1Nc1c(-c2ccccc2-c2ccc([N+](=O)[O-])s2)nc2ccc(F)cn12 [Compound A8]
> 10000 nM | > 10000 nM | Cc1cccc(C)c1Nc1c(-c2ccccc2-c2nccs2)nc2ccc(F)cn12 [Compound A1, (2,6-dimethylphenyl)-[6-fluoro-2-(2-thiazol-2-ylphenyl)-imidazo[1,2-a]pyridin-3-yl]amine]
10 to 1000 nM | 1000 to 10000 nM | Cc1cccc(C)c1Nc1c(-c2ccccc2-c2nnc(N(C)C)o2)nc2ccc(F)cn12 [Compound C4]
10 to 1000 nM | 1000 to 10000 nM | CNc1nnc(-c2ccccc2-c2nc3ccc(F)cn3c2Nc2c(C)cccc2C)o1 [Compound C1, (2,6-dimethylphenyl)-{6-fluoro-2-[2-(5-methylamino-1,3,4-oxadiazol-2-yl)phenyl]imidazo[1,2-a]pyridin-3-yl}amine]
> 10000 nM | > 10000 nM | Cc1cccc(C)c1Nc1c(-c2ccccc2-c2cccc(C(=O)O)c2)nc2ccccn12 [Compound A2, 2′-[3-(2,6-Dimethylphenylamino)imidazo [1,2-a]pyridin-2-yl]biphenyl-3-carboxylic acid]
1000 to 10000 nM | > 10000 nM | Cc1cccc(C)c1Nc1c(-c2ccccc2-c2cccs2)nc2ccc(F)cn12 [Compound A3]
10 to 1000 nM | 1000 to 10000 nM | CNc1nnc(-c2c(-c3nc4ccc(F)cn4c3Nc3c(C)cccc3C)c3ccccc3n2C)o1 [Compound C12, (2,6-Dimethylphenyl)-{6-fluoro-2-[1-methyl-2-(5-methylamino-1,3,4-oxadiazol-2-yl)-1H-indol-3-yl]imidazo[1,2-a]pyridin-3-yl}amine]
10 to 1000 nM | 1000 to 10000 nM | Cc1cccc(C)c1Nc1c(-c2ccccc2-c2cccnc2)nc2ccc(F)cn12 [Compound A11]
10 to 1000 nM | 1000 to 10000 nM | Cc1nc(-c2ccccc2-c2nc3ccc(F)cn3c2Nc2c(C)cccc2C)no1 [Compound A10]
1000 to 10000 nM | 1000 to 10000 nM | Cc1cccc(C)c1Nc1c(-c2ccccc2-c2cccc(C(N)=O)c2)nc2ccccn12 [Compound A4]
